Measurements reported in patent US20220145396A1, “METHOD OF IDENTIFYING PATIENTS WITH BORTEZOMIB RESISTANT MULTIPLE MYELOMA AND OTHER BLOOD DISEASES” (Max-Planck-Gesellschaft zur Förderung der Wissenschaften …, priority 2019, published 2022).
“Also recorded” adds a separate entry of the source.

Columns and labels:
[1] = system: bortezomib resistant PSMB5 mutant cell lines; assay: XTT cell viability assay of bortezomib resistant PSMB5 mutant clones (AN3-12 mouse haploid embryonic stem cells) treated with proteasome inhibitors; assay type: cell-based
Procedure: AN3-12 mouse haploid embryonic stem cells were cultured as previously described (Elling et al., 2011). In brief, the cells were grown in DMEM high glucose (Sigma-Aldrich, St. Louis, Mo.) supplemented with 15% fetal bovine serum, penicillin/streptomycin, glutamine, non-essential amino acids, sodium pyruvate (all Thermo Fisher Scientific, Waltham, Mass.), β-mercaptoethanol, and Leukemia-Inhibitor Factor (LIF) (both Merck Millipore, Darmstadt, Germany) on non-coated tissue culture plates.
Chemical mutagenesis was performed as previously described (Horn et al., 2011). In brief, AN3-12 cells were transferred to 15 ml tubes, incubated with 0.1 mg/ml ENU for two hours at room temperature, washed five times with LIF-free medium, and plated on culture dishes. The cells were selected with 25 nM Bortezomib (Selleckchem, Houston, Tex.) for three weeks, starting 24 h after mutagenesis. Resistant clones were transferred to 24-well plates and the Psmb5 locus was analyzed. DNA was extracted (DNA extraction solution, Epicentre, Biotechnologies, Madison, Wis.) and exon 2 or exon 3 of the Psmb5 genewere specifically amplified by PCR using the primers msPSMB5exon2_fwd ([…]), msPSMB5exon2_rev ([…]), msPSMB5exon3_fwd ([…]), and msPSMB5exon3_rev ([…]). The used PSMB5 transcript is PSMB5-202, transcript identification ID ENST00000361611.11, coding sequence: CCDS9584, as available on Ensemble Biomart database. Sanger sequencing was performed at Eurofins Genomics GmbH (Ebersberg, Germany).
(§1) Cell viability was analyzed using the XTT cell proliferation Kit II (Roche Diagnostics, Basel, Switzerland) according to the manufacturer's instructions. Drug treatment was started 24 h after cell seeding. The absorbance was measured after 72 h of treatment and normalized to the respective untreated control cells.

[2] = system: KMS-18 T21A mutant cell line; assay: XTT viability assay of KMS-18 multiple myeloma cell line with spontaneous PSMB5 T21A substitution; assay type: cell-based, human; conditions: KMS-18 T21A mutant cells, heterozygous
Procedure: as §1
KMS-18 and KMS-27 cells, having a wild type PSMB5 locus, were subjected to a 4-week selection on bortezomib without the use of mutagens.
Resistance of these two mutant cell lines to the different proteasome inhibitors was investigated using the XTT viability assay.

[3] = T21 substitutions, 15 nM carfilzomib or 75 nM oprozomib

Structure (SMILES)	resistance of mutant cell lines compared to the wildtype control (viability assay) ([1]; 10 nM bortezomib, 72 h, identified Psmb5 mutant clones vs WT)	response in cell viability assay ([1]; T21A substitution)	response in XTT viability assay [2]	resistance in cell viability assay ([1]; 15 nM carfilzomib, the different mutants)	response in cell viability assay [1, 3]	response in cell viability assay (clustering, FIG. 12) ([1]; substitutions in positions C63, S130, or Y169)	resistance in cell viability assay ([1]; 50 nM ixazomib, all bortezomib resistant PSMB5 mutant cell lines)	resistance in cell viability assay ([1]; 75 nM oprozomib, the different mutants)
CC(C)C[C@H](NC(=O)[C@H](Cc1ccccc1)NC(=O)c1cnccn1)B(O)O [bortezomib, [(1R)-3-Methyl-1-[[(2S)-1-oxo-3-phenyl-2-[(pyrazinylcarbonyl)amino]propyl]amino]butyl]boronic acid]	up to 2 fold	resistance	resistance					
CC(C)C[C@H](NC(=O)[C@H](CCc1ccccc1)NC(=O)CN1CCOCC1)C(=O)N[C@@H](Cc1ccccc1)C(=O)N[C@@H](CC(C)C)C(=O)[C@@]1(C)CO1 [carfilzomib]		hypersensitive	sensitive	varying degrees of resistance; also recorded: highly variable	hypersensitivity	partially maintained response		
CC(C)C[C@H](NC(=O)CNC(=O)c1cc(Cl)ccc1Cl)B(O)O [ixazomib]		resistance	resistance				resistant	
COC[C@H](NC(=O)c1cnc(C)s1)C(=O)N[C@@H](COC)C(=O)N[C@@H](Cc1ccccc1)C(=O)[C@@]1(C)CO1 [oprozomib]		hypersensitive	sensitive		hypersensitivity			varying degrees of resistance; also recorded: highly variable
